In patent US20230055237A1, “COMPOUNDS AND METHODS FOR THE TREATMENT OF CYSTIC FIBROSIS” (Flatley Discovery Lab, LLC, priority 2019, published 2023):

Target: T1, CFTR (Homo sapiens, UniProt P13569, DEL508-508)
T1 construct: Primary CF airway epithelial cells were obtained from the UNC Cystic Fibrosis Tissue Procurement and Cell Culture Core; host or cells: primary CF airway epithelial cells, differentiated at the air-liquid interface
Test: Equivalent current assay in primary CF airway epithelial cells (NAUC, combination with 1st site corrector FDL169 or VX-809)
Type: cell-based
Conditions: 37° C., 24 h

[1] = test compound 1 μM in combination with 1st site corrector FDL169 (3 μM)
[2] = test compound 3 μM in combination with 1st site corrector FDL169 (3 μM)
[3] = test compound 10 μM in combination with 1st site corrector FDL169 (3 μM)
[4] = test compound 10 μM in combination with 1st site corrector VX-809 (3 μM)
[5] = test compound 3 μM in combination with 1st site corrector VX-809 (3 μM)
[6] = test compound 1 μM in combination with 1st site corrector VX-809 (3 μM)

T1 sequence (P13569 with tags, fused parts or gaps DEL508-508): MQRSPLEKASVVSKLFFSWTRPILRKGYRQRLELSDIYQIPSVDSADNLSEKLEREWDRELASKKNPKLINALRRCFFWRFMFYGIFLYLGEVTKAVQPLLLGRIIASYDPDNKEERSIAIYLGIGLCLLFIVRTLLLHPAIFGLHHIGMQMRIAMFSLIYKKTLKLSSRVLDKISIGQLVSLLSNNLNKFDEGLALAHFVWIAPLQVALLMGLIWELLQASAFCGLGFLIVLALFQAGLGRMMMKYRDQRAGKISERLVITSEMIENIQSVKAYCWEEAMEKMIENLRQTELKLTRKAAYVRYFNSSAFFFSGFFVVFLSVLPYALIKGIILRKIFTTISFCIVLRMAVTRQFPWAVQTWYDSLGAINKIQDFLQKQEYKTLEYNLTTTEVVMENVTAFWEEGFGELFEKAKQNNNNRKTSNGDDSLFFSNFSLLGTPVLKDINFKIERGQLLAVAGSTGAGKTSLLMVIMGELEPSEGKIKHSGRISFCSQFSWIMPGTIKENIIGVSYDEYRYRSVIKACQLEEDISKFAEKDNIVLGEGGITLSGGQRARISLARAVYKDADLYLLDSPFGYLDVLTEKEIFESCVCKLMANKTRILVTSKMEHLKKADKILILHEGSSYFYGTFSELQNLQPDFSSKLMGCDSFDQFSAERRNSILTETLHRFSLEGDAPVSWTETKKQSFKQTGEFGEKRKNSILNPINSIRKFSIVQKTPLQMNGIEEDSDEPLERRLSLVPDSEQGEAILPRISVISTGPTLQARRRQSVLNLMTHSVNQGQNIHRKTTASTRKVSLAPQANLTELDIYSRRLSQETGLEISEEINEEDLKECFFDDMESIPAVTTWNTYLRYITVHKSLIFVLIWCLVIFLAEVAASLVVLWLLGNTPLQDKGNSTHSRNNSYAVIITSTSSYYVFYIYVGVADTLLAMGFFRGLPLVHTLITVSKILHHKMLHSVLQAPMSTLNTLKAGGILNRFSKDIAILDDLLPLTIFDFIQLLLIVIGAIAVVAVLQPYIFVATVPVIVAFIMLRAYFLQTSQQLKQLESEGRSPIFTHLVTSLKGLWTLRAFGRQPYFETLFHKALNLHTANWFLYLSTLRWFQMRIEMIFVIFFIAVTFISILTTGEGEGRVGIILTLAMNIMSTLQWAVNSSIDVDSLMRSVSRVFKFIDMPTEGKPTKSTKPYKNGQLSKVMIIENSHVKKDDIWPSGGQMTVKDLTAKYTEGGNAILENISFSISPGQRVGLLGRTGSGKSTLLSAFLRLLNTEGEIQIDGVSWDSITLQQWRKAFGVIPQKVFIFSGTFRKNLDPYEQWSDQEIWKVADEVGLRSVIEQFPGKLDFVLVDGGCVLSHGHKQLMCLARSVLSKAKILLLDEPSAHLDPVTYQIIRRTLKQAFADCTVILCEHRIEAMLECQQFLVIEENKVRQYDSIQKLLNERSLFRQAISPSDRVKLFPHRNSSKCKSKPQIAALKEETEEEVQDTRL

Compound | Nauc @ 1 μM [1] | Nauc @ 3 μM [2] | Nauc @ 10 μM [3] | Nauc @ 10 μM [4] | Nauc @ 3 μM [5] | Nauc @ 1 μM [6]
CC(C)(C)CN(C(=O)[C@H]1[C@@H](C(=O)O)C2(C(=O)Nc3c(Cl)cc(Cl)cc32)N2CC(C)(C)C[C@@H]12)c1cc(Cl)cc(Cl)c1 (single isomer, unassigned) [Example 274.6b, (1′S,2′R,7a′S)-5,7-dichloro-1′-((3,5-dichlorophenyl)(neopentyl)carbamoyl)-6′,6′-dimethyl-2-oxo-1′,2′,5′,6′,7′,7a′-hexahydrospiro[indoline-3,3′-pyrrolizine]-2′-carboxylic acid] | +++ (NAUC “+++” refers to an observed NAUC>170% of positive control) | ++ (NAUC “++” refers to an observed NAUC 170-140% of positive control) | + (NAUC “+” refers to an observed NAUC <140% of positive control) | – | – | –
O=C(Nc1cc(Cl)cc(Cl)c1)C1C(C(F)(F)c2ccccn2)NC2(C(=O)Nc3c(Cl)cc(Cl)cc32)C1C(=O)O (stereo not shown) [Example 72.b] | – | – | – | + (NAUC “+” refers to an observed NAUC <140% of positive control) | – | –
C[C@]1(O)CC2C(C(=O)Nc3cc(C(F)(F)F)cc(C(F)(F)F)n3)C(C(=O)O)C3(C(=O)Nc4c(Cl)cc(Cl)cc43)N2C1 (stereo partly shown) [Example 5] | – | – | – | +++ (NAUC “+++” refers to an observed NAUC>170% of positive control) | +++ (NAUC “+++” refers to an observed NAUC>170% of positive control) | –
O=C(O)[C@H]1[C@@H](C(=O)N(CC2CC2)c2cccc(CC(F)(F)F)c2)[C@H]2CC(F)(F)CN2[C@]12C(=O)Nc1c(Cl)cc(Cl)cc12 [Example 164] | +++ (NAUC “+++” refers to an observed NAUC>170% of positive control) | +++ (NAUC “+++” refers to an observed NAUC>170% of positive control) | +++ (NAUC “+++” refers to an observed NAUC>170% of positive control) | – | – | –
O=C(Nc1cc(Cl)cc(Cl)c1)C1C(C(F)(F)c2cccc(Cl)c2)NC2(C(=O)Nc3c(Cl)cc(Cl)cc32)C1C(=O)O (stereo not shown) [Example 68.a] | – | – | – | + (NAUC “+” refers to an observed NAUC <140% of positive control) | – | –
O=C(Nc1cc(Cl)cc(Cl)c1F)C1C2CCCN2C2(C(=O)Nc3c(Cl)cc(Cl)cc32)C1C(=O)O (stereo not shown) [Example 37] | – | – | – | +++ (NAUC “+++” refers to an observed NAUC>170% of positive control) | +++ (NAUC “+++” refers to an observed NAUC>170% of positive control) | –
CONC(=O)[C@H]1[C@@H](C(=O)Nc2cc(Cl)cc(Cl)c2)[C@H]2CCCN2C12C(=O)Nc1c(Cl)cc(Cl)cc12 (stereo partly drawn) [Example 233, (1′R,2′S,7a′R)-5,7-dichloro-N1′-(3,5-dichlorophenyl)-N2′-methoxy-2-oxo-1′,2′,5′,6′,7′,7a′-hexahydrospiro[indoline-3,3′-pyrrolizine]-1,2′-dicarboxamide] | – | – | – | +++ (NAUC “+++” refers to an observed NAUC>170% of positive control) | +++ (NAUC “+++” refers to an observed NAUC>170% of positive control) | ++ (NAUC “++” refers to an observed NAUC 170-140% of positive control)
COc1cc(C(F)(F)F)cc(NC(=O)C2C3CC(F)(F)CN3C3(C(=O)Nc4c(Cl)cc(Cl)cc43)C2C(=O)O)n1 (single isomer, unassigned) [Example 80.7b.2, 5,7-dichloro-6′,6′-difluoro-1′-((6-methoxy-4-(trifluoromethyl)pyridin-2-yl)carbamoyl)-2-oxo-1′,2′,5′,6′,7′,7a′-hexahydrospiro[indoline-3,3′-pyrrolizine]-2′-carboxylic acid] | – | – | – | + (NAUC “+” refers to an observed NAUC <140% of positive control) | – | –
Cn1cnc(NC(=O)[C@H]2[C@@H](C(=O)Nc3cc(Cl)cc(Cl)c3)[C@H]3CCCN3[C@]23C(=O)Nc2c(Cl)cc(Cl)cc23)c1 (single isomer, unassigned) [Example 237, (1′R,2′S,7a′R)-5,7-dichloro-N1′-(3,5-dichlorophenyl)-N2′-(1-methyl-1H-imidazol-4-yl)-2-oxo-1′,2′,5′,6′,7′,7a′-hexahydrospiro[indoline-3,3′-pyrrolizine]-1′,2′-dicarboxamide] | – | – | – | ++ (NAUC “++” refers to an observed NAUC 170-140% of positive control) | + (NAUC “+” refers to an observed NAUC <140% of positive control) | + (NAUC “+” refers to an observed NAUC <140% of positive control)
O=C(O)[C@H]1[C@@H](C(=O)N(CC23CC(F)(C2)C3)c2cc(Cl)cc(Cl)c2)[C@H]2CC(F)(F)CN2[C@]12C(=O)Nc1c(Cl)cc(Cl)cc12 [Example 188] | +++ (NAUC “+++” refers to an observed NAUC>170% of positive control) | ++ (NAUC “++” refers to an observed NAUC 170-140% of positive control) | ++ (NAUC “++” refers to an observed NAUC 170-140% of positive control) | – | – | –
CC(C)(C)CN(C(=O)[C@H]1[C@H]2C[C@](C)(O)CN2[C@]2(C(=O)Nc3c(Cl)cc(Cl)cc32)[C@H]1C(=O)O)c1cc(Cl)cc(Cl)c1 [Example 91, (1′R,2′S,3R,6′S,7a′R)-5,7-dichloro-1′-((3,5-dichlorophenyl)(neopentyl)carbamoyl)-6′-hydroxy-6′-methyl-2-oxo-1′,2′,5′,6′,7′,7a′-hexahydrospiro[indoline-3,3′-pyrrolizine]-2′-carboxylic acid] | ++ (NAUC “++” refers to an observed NAUC 170-140% of positive control) | ++ (NAUC “++” refers to an observed NAUC 170-140% of positive control) | – | – | – | –
O=C(Nc1cc(Cl)cc(Cl)c1)C1CN(C(=O)CCc2ccccc2)C2(C(=O)Nc3c(Cl)cc(Cl)cc32)C1C(=O)O (stereo not shown) [Example 24] | – | – | – | + (NAUC “+” refers to an observed NAUC <140% of positive control) | +++ (NAUC “+++” refers to an observed NAUC>170% of positive control) | –
CC(C)(C)CN(C(=O)[C@H]1[C@@H](C(=O)O)[C@]2(C(=O)Nc3c(Cl)cc(Cl)cc32)N2CC3(CC3)C[C@@H]12)c1cc(Cl)cc(Cl)c1 (single isomer, unassigned) [Example 275.7b] | +++ (NAUC “+++” refers to an observed NAUC>170% of positive control) | +++ (NAUC “+++” refers to an observed NAUC>170% of positive control) | ++ (NAUC “++” refers to an observed NAUC 170-140% of positive control) | – | – | –
CN(C(=O)[C@H]1[C@H]2CC(F)(F)CN2[C@]2(C(=O)Nc3c(Cl)cc(Cl)cc32)[C@H]1C(=O)O)c1cc(Cl)cc(Cl)c1 [Example 169] | ++ (NAUC “++” refers to an observed NAUC 170-140% of positive control) | +++ (NAUC “+++” refers to an observed NAUC>170% of positive control) | +++ (NAUC “+++” refers to an observed NAUC>170% of positive control) | – | – | –
O=C(Nc1ccc(O)cc1)C1C2CC(F)(F)CN2C2(C(=O)Nc3c(Cl)cc(Cl)cc32)C1C(=O)O (stereo not shown) [Example 77.a] | – | – | – | + (NAUC “+” refers to an observed NAUC <140% of positive control) | – | –
Cc1ccccc1CCNC(=O)C1C2CC(F)(F)CN2C2(C(=O)Nc3c(Cl)cc(Cl)cc32)C1C(=O)O (stereo not shown) [Example 47] | – | – | – | +++ (NAUC “+++” refers to an observed NAUC>170% of positive control) | ++ (NAUC “++” refers to an observed NAUC 170-140% of positive control) | –
CC(C)(C)c1cccc(CCNC(=O)C2C(C(F)(F)F)NC3(C(=O)Nc4c(Cl)cc(Cl)cc43)C2C(=O)O)c1 (stereo not shown) [Example 45] | – | – | – | +++ (NAUC “+++” refers to an observed NAUC>170% of positive control) | +++ (NAUC “+++” refers to an observed NAUC>170% of positive control) | –
O=C(Nc1cc(Cl)cc(Cl)c1)C1C(Cc2ccccc2)NC2(C(=O)Nc3c(Cl)cc(Cl)cc32)C1C(=O)O (stereo not shown) [Example 34] | – | – | – | ++ (NAUC “++” refers to an observed NAUC 170-140% of positive control) | +++ (NAUC “+++” refers to an observed NAUC>170% of positive control) | –
CN(C(=O)[C@H]1[C@H]2CC(F)(F)CN2[C@]2(C(=O)N(CC3CC3)c3c(Cl)cc(Cl)cc32)[C@H]1C(=O)O)c1cc(Cl)cc(Cl)c1 [Example 201] | + (NAUC “+” refers to an observed NAUC <140% of positive control) | + (NAUC “+” refers to an observed NAUC <140% of positive control) | – | – | – | –
CC(C)(C)CCN(C(=O)[C@H]1[C@H]2CC(F)(F)CN2[C@]2(C(=O)Nc3c(Cl)cc(Cl)cc32)[C@H]1C(=O)O)c1cc(Cl)cc(Cl)c1 [Example 182] | +++ (NAUC “+++” refers to an observed NAUC>170% of positive control) | ++ (NAUC “++” refers to an observed NAUC 170-140% of positive control) | – | – | – | –
C[C@]1(O)C[C@@H]2[C@H](C(=O)Nc3cc(Cl)cc(Cl)c3)[C@H](C(=O)NO)[C@@]3(C(=O)Nc4c(Cl)cc(Cl)cc43)N2C1 [Example 245, (1′R,2′S,6′S,7a′R)-5,7-dichloro-N1′-(3,5-dichlorophenyl)-N2′,6′-dihydroxy-6′-methyl-2-oxo-1′,2′,5′,6′,7′,7a′-hexahydrospiro[indoline-3,3′-pyrrolizine]-1′,2′-dicarboxamide] | – | – | – | +++ (NAUC “+++” refers to an observed NAUC>170% of positive control) | ++ (NAUC “++” refers to an observed NAUC 170-140% of positive control) | + (NAUC “+” refers to an observed NAUC <140% of positive control)
